Test results as given in patent publication US8012963B2, “3,4-dihydro-2H-benzo[1,4]oxazine and thiazine derivatives as CETP inhibitors” (Janssen Pharmaceutica N.V., priority 2006, dated 2011).
Several values for one entry are separate records, joined by “and”; a condition that tells them apart may be missing. Equal values may be shown once.

Target: T1, CETP (Homo sapiens, UniProt P11597)
T1 construct: from tissue; host or cells: human plasma from normal volunteers
T1 sequence (P11597 18-493): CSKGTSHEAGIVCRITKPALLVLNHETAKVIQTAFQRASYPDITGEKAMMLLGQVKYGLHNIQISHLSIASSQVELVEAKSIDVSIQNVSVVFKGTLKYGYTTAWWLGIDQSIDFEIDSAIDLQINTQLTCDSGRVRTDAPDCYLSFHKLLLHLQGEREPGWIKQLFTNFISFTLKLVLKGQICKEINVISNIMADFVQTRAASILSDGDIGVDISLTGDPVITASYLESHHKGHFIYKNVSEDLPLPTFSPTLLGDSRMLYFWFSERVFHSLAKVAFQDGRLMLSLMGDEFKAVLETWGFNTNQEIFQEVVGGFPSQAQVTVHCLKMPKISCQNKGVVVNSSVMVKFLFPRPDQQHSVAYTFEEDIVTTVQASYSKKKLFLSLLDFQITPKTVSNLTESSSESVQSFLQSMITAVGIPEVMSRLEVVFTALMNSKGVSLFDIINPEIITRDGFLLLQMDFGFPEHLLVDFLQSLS
Experiment: CETP in vitro assay ([3H]CE-HDL transfer, Amersham kit TRKQ7005; modified protocol in human plasma)
Assay type: biochemical
Details: multiple values = multiple measurements; for % Inhibition @ 1 μM / inhibition at 1 µM: 1 μM compound
How it was run: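 Normal-volunteer human plasma was incubated ≥4 hr at 37 °C with approx. 25 μg/ml [3H]CE-HDL and compound in DMSO, with a 4 °C blank for non-specific transfer. HDL was separated by Dextralip/MgCl2 precipitation and centrifugation, then supernatant radioactivity counted. IC50 came from % control versus concentration.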

% Inhibition @ 1 μM | IC50 | inhibition at 1 µM [%] | Compound
– | 193 nM | 100 | O[C@@H](CN1c2cccc(-c3cc(F)cc(F)c3)c2OC[C@@H]1c1cccc(OC(F)(F)F)c1)C(F)(F)F [Compound 80, 4H-1,4-Benzoxazine-4-ethanol, 2,3-dihydro-3-[3-(trifluoromethoxy)phenyl]-8-[3,5-(difluoro)phenyl]-α-(trifluoromethyl)-, (3S,αS)—]
96% | 94 nM | 91 | O[C@@H](CN1c2cccc(-c3cc(F)c(F)c(F)c3)c2OC[C@@H]1c1cccc(OC(F)(F)F)c1)C(F)(F)F [Compound 82, 4H-1,4-Benzoxazine-4-ethanol, 2,3-dihydro-3-[3-(trifluoromethoxy)phenyl]-8-[3,4,5-(trifluoro)phenyl]-α-(trifluoromethyl)-, (3S,αS)—]
– | – | 29 | O[C@H](CN1c2cccc(-c3cc(F)c(F)c(F)c3)c2OC[C@@H]1c1cccc(OC(F)(F)F)c1)C(F)(F)F [Compound 83, 4H-1,4-Benzoxazine-4-ethanol, 2,3-dihydro-3-[3-(trifluoromethoxy)phenyl]-8-[3,4,5-(trifluoro)phenyl]-α-(trifluoromethyl)-, (3S,αR)—]
87% | 100 nM and 158 nM | 84 | CC(C)C(O)CN1c2cccc(-c3cccc(OC(F)(F)F)c3)c2OCC1c1cccc(OC(F)(F)C(F)F)c1 (stereo not drawn) [Compound 84, 3-Methyl-1-[3-[3-(1,1,2,2-tetrafluoro-ethoxy)-phenyl]-8-(3-trifluoromethoxy-phenyl)-2,3-dihydro-benzo[1,4]oxazin-4-yl]-butan-2-ol]
20% | – | – | Cc1ccsc1C1COc2c(-c3cccc(OC(F)(F)F)c3)cccc2N1CC(O)C(F)(F)F (stereo not drawn) [Compound 85, 1,1,1-Trifluoro-3-[3-(3-methyl-thiophen-2-yl)-8-(3-trifluoromethoxy-phenyl)-2,3-dihydro-benzo[1,4]oxazin-4-yl]-propan-2-ol]
2% | – | – | Cc1ccsc1C1COc2c(-c3cccc(OC(F)(F)F)c3)cccc2N1CC(O)C(F)(F)F (stereo not drawn) [Compound 86, 1,1,1-Trifluoro-3-[3-(3-methyl-thiophen-2-yl)-8-(3-trifluoromethoxy-phenyl)-2,3-dihydro-benzo[1,4]oxazin-4-yl]-propan-2-ol]
– | – | 8 | CCc1ccsc1C1COc2c(-c3cccc(OC(F)(F)F)c3)cccc2N1CC(O)C(F)(F)F (stereo not drawn) [Compound 87, 3-[3-(3-Ethyl-thiophen-2-yl)-8-(3-trifluoromethoxy-phenyl)-2,3-dihydro-benzo[1,4]oxazin-4-yl]-1,1,1-trifluoro-propan-2-ol]
12% | – | – | CCc1ccsc1C1COc2c(-c3cccc(OC(F)(F)F)c3)cccc2N1CC(O)C(F)(F)F (stereo not drawn) [Compound 88, 3-[3-(3-Ethyl-thiophen-2-yl)-8-(3-trifluoromethoxy-phenyl)-2,3-dihydro-benzo[1,4]oxazin-4-yl]-1,1,1-trifluoro-propan-2-ol]

More lines, now with the values behind:

Compound | % Inhibition @ 1 μM | IC50 | inhibition at 1 µM [%]
CC(C)(C)C(=O)CC1COc2c(-c3cccc(OC(F)(F)F)c3)cccc2N1CC(O)C(F)(F)F (stereo not drawn) [Compound 57, 3,3-Dimethyl-1-[4-(3,3,3-trifluoro-2-hydroxy-propyl)-8-(3-trifluoromethoxy-phenyl)-3,4-dihydro-2H-benzo[1,4]oxazin-3-yl]-butan-2-one] | 0% | – | –
CCc1ccc(C2COc3c(-c4cccc(OC(F)(F)F)c4)cccc3N2CC(O)C(F)(F)F)s1 (stereo not drawn) [Compound 58, 3-[3-(5-Ethyl-thiophen-2-yl)-8-(3-trifluoromethoxy-phenyl)-2,3-dihydro-benzo[1,4]oxazin-4-yl]-1,1,1-trifluoro-propan-2-ol] | 60% and 96% | 502 nM | –
CCc1ccc(C2COc3c(-c4cccc(OC(F)(F)F)c4)cccc3N2CC(O)C(F)(F)F)s1 (stereo not drawn) [Compound 59, 3-[3-(5-Ethyl-thiophen-2-yl)-8-(3-trifluoromethoxy-phenyl)-2,3-dihydro-benzo[1,4]oxazin-4-yl]-1,1,1-trifluoro-propan-2-ol] | 0% | – | –
COc1ccsc1C1COc2c(-c3cccc(OC(F)(F)F)c3)cccc2N1CC(O)C(F)(F)F (stereo not drawn) [Compound 60, 1,1,1-Trifluoro-3-[3-(3-methoxy-thiophen-2-yl)-8-(3-trifluoromethoxy-phenyl)-2,3-dihydro-benzo[1,4]oxazin-4-yl]-propan-2-ol] | 0% | – | –
COc1ccsc1C1COc2c(-c3cccc(OC(F)(F)F)c3)cccc2N1CC(O)C(F)(F)F (stereo not drawn) [Compound 61, 1,1,1-Trifluoro-3-[3-(3-methoxy-thiophen-2-yl)-8-(3-trifluoromethoxy-phenyl)-2,3-dihydro-benzo[1,4]oxazin-4-yl]-propan-2-ol] | 3% | – | –
COc1ccc(C2COc3c(-c4cccc(OC(F)(F)F)c4)cccc3N2CC(O)C(F)(F)F)s1 (stereo not drawn) [Compound 62, 1,1,1-Trifluoro-3-[3-(5-methoxy-thiophen-2-yl)-8-(3-trifluoromethoxy-phenyl)-2,3-dihydro-benzo[1,4]oxazin-4-yl]-propan-2-ol] | – | – | 19
COc1ccc(C2COc3c(-c4cccc(OC(F)(F)F)c4)cccc3N2CC(O)C(F)(F)F)s1 (stereo not drawn) [Compound 63, 1,1,1-Trifluoro-3-[3-(5-methoxy-thiophen-2-yl)-8-(3-trifluoromethoxy-phenyl)-2,3-dihydro-benzo[1,4]oxazin-4-yl]-propan-2-ol] | 17% | – | –
OC(CF)CN1c2cccc(-c3cccc(OC(F)(F)F)c3)c2OCC1c1cccc(OC(F)(F)C(F)F)c1 (stereo not drawn) [Compound 68, 1-Fluoro-3-[3-[3-(1,1,2,2-tetrafluoro-ethoxy)-phenyl]-8-(3-trifluoromethoxy-phenyl)-2,3-dihydro-benzo[1,4]oxazin-4-yl]-propan-2-ol] | 79% and 91% | 127 nM | –
OC(CF)CN1c2cccc(-c3cccc(OC(F)(F)F)c3)c2OCC1c1cccc(OC(F)(F)C(F)F)c1 (stereo not drawn) [Compound 69, 1-Fluoro-3-[3-[3-(1,1,2,2-tetrafluoro-ethoxy)-phenyl]-8-(3-trifluoromethoxy-phenyl)-2,3-dihydro-benzo[1,4]oxazin-4-yl]-propan-2-ol] | 50% | – | –
OC(CN1c2cccc(-c3cccc(OC(F)(F)F)c3)c2OCC1c1cccc(C(F)(F)F)c1)C(F)(F)F (stereo not drawn) [Compound 70, 1,1,1-Trifluoro-3-[8-(3-trifluoromethoxy-phenyl)-3-(3-trifluoromethyl-phenyl)-2,3-dihydro-benzo[1,4]oxazin-4-yl]propan-2-ol] | 37% | – | –
OC(CN1c2cccc(-c3cccc(OC(F)(F)F)c3)c2OCC1c1cccc(C(F)(F)F)c1)C(F)(F)F (stereo not drawn) [Compound 71, 1,1,1-Trifluoro-3-[8-(3-trifluoromethoxy-phenyl)-3-(3-trifluoromethyl-phenyl)-2,3-dihydro-benzo[1,4]oxazin-4-yl]-propan-2-ol] | 2% | – | –
O[C@@H](CN1c2cccc(-c3cc(F)cc(F)c3)c2OC[C@@H]1c1cccc(OC(F)(F)C(F)F)c1)C(F)(F)F [Compound 72, 4H-1,4-Benzoxazine-4-ethanol, 8-(3,5-difluorophenyl)-2,3-dihydro-3-[3-(1,1,2,2-tetrafluoroethoxy)phenyl]-α-(trifluoromethyl)-, (3S,αS)—] | – | 50 nM | 100
O[C@H](CN1c2cccc(-c3cc(F)cc(F)c3)c2OC[C@@H]1c1cccc(OC(F)(F)C(F)F)c1)C(F)(F)F [Compound 73, 4H-1,4-Benzoxazine-4-ethanol, 8-(3,5-difluorophenyl)-2,3-dihydro-3-[3-(1,1,2,2-tetrafluoroethoxy)phenyl]-α-(trifluoromethyl)-, (3S,αR)—] | – | 460 nM | 76
O[C@@H](CN1c2cccc(-c3cc(F)c(F)c(F)c3)c2OC[C@@H]1c1cccc(OC(F)(F)C(F)F)c1)C(F)(F)F [Compound 76, 4H-1,4-Benzoxazine-4-ethanol, 2,3-dihydro-3-[3-(1,1,2,2-tetrafluoroethoxy)phenyl]-8-[3,4,5-trifluoro-phenyl]-α-(trifluoromethyl)-, (3S,αS)—] | 101% | 41 nM | 106
O[C@H](CN1c2cccc(-c3cc(F)c(F)c(F)c3)c2OC[C@@H]1c1cccc(OC(F)(F)C(F)F)c1)C(F)(F)F [Compound 77, 4H-1,4-Benzoxazine-4-ethanol, 2,3-dihydro-3-[3-(1,1,2,2-tetrafluoroethoxy)phenyl]-8-[3,4,5-trifluoro-phenyl]-α-(trifluoromethyl)-, (3S,αR)—] | 82% | 220 nM | 80
O[C@@H](CN1c2cccc(-c3cc(C(F)(F)F)cc(C(F)(F)F)c3)c2OC[C@@H]1c1cccc(OC(F)(F)C(F)F)c1)C(F)(F)F [Compound 78, 4H-1,4-Benzoxazine-4-ethanol, 2,3-dihydro-3-[3-(1,1,2,2-tetrafluoroethoxy)phenyl]-8-[3,5-bis(trifluoromethyl)phenyl]-α-(trifluoromethyl)-, (3S,αS)—] | 62% | 580 nM | 55
O[C@H](CN1c2cccc(-c3cc(C(F)(F)F)cc(C(F)(F)F)c3)c2OC[C@@H]1c1cccc(OC(F)(F)C(F)F)c1)C(F)(F)F [Compound 79, 4H-1,4-Benzoxazine-4-ethanol, 2,3-dihydro-3-[3-(1,1,2,2-tetrafluoroethoxy)phenyl]-8-[3,5-bis(trifluoromethyl)phenyl]-α-(trifluoromethyl)-, (3S,αR)—] | 40% | 5000 nM | 43
